According to patent US8828993B2, “Psychotropic agents having glutamate NMDA activity” (Ramot At Tel-Aviv University Ltd., priority 2006, dated 2014):
Structures can show the parent of a compound that is named as a salt.

Key:
Type in all cases: in vivo
[1] = test system: amphetamine-induced hyperactivity in mice; assay: Amphetamine-induced hyperactivity and stereotypic behavior; settings: ICR male mice
Source text: The amphetamine-induced hyperactivity and motility is one of the most popular animal models for schizophrenia (Pouzet B, et al., Effects of the 5-HT(7) receptor antagonist SB-258741 in animal models for schizophrenia. Pharmacol Biochem Behav April; 71(4):655-665, 2002 and Geyer, et al., Animal behavior models of the mechanisms underlying antipsychotic atypicalicity, Progress in Neuro-Psychopharmacol & Biological Psychiatry, 27, 1071-79, 2003). Amphetamines are known to augment dopaminergic and noradrenergic neurotransmission by inducing catecholamine release and preventing catecholamine reuptake
The experiment was conducted with ICR male mice placed in individual barrels. […] The locomotor activity, number of rearings and head movements was recorded every 15 minutes for 2 h.
As stated above, the amphetamine-induced hyperactivity and motility is one of the most popular animal models for schizophrenia. The experiment was conducted with ICR male mice placed in individual barrels. Compound 1 (20 mg/kg) was administered p.o to the mice 1 hr prior to i.p. administration of amphetamine (2. mg/kg). The hyper-active behavior expressed by the number of climbings and rearings and the stereotypic behavior expressed by the number of head movements was recorded every 15 minutes over a period of 1 h.
The effect of Compound 3 (12.5, 25 and 50 mg/kg, i.p.) on amphetamine-induced hyperactivity in Balb/c mice was also examined. Animals (6 per group) were injected with Compound 3 (12.5, 25 and 50 mg/kg) and 30 minutes later received amphetamine (2 mg/kg ip). After 30 minutes, animals were exposed to an open field test for a period of 20 minutes.

[2] = test system: mice; assay: Catalepsy bar test; settings: doses of up to 50 mg/kg i.p., scored 90 minutes later
Description: Catalepsy in mice and rats serves as a behavioral model for the manifestation of the extrapyramidal adverse effects of neuroleptics (Worm, et al., Dopamine-like activities of an aminopyridazine derivative, CM 30366. A behavioral study, Naunyn-Schmeideberg's Arch Pharmacol, 334, 246-52, 1986).
Catalepsy in mice is evaluated using a bar test. The mice were placed in the middle of a steel rod situated between two platforms with their front paws resting on the bar. Animals were injected i.p. with a vehicle or Compound 1. Animals were scored 90 minutes later for the time it took each animal to reach the platform.

[3] = test system: mice; assay: Forced swim test (FST)
Source text: This is one of the most widely used tools for screening antidepressant activity pre-clinically in acute treatment. The test was first described by Porsolt et al., (Behavioral despair in mice: a primary screening test for antidepressants. Arch. Int. Pharmacodyn. Ther. 229, pp. 327-336, 1977). The FST test is based on the observation that rats and mice develop an immobile posture when placed in an inescapable cylinder of water. This behavior is considered a behavioral despair as opposed to active form of coping with stressful conditions. The FST test is considered a good screening tool with good reliability and predictive validity.
Three parameters were defined in the evaluation of FST:
1. Immobility—defined in the traditional Porsolt test as when no additional activity is observed other than that required to keep the animal's head above water;
2. Swimming behavior—being the movement (usually horizontal) throughout the chamber that also includes crossing into another quadrant;
3. Climbing behavior—being defined as the upward-directed movements (vertical) of the forepaws along the side of the swim chamber.
The test in mice was conducted acutely (60-90 minutes post oral drug administration) and animals were dropped to the cylinder for 6 minutes and scoring was performed in the last 4 minutes after 2 minutes of adaptation.
Round glass cylinders, 18 cm in diameter and 20 cm deep were used. Water temperature was 24-28° C. Four parameters were taken: immobility, velocity, distance and strong mobility. The immobility in the animals was defined by activity lower than 10% movement of the center of gravity of the animal. Swimming was defined by the distance and the velocity of the animal, and climbing was related to strong mobility (movement of center of gravidance more than 30%).
Males Balb/c mice (Harlan Israel) were used. Animals were administered orally with Compound 1 (10 or 20 mg/kg) or with a vehicle.
Males ICR mice were used.

[4] = test system: ICR male mice; assay: Subchronic toxicity
Description: Subchronic toxicity was tested in ICR male mice. Animals (5 per group) received Compound 1 daily (10 and 20 mg/kg p.o). Animals were followed up for 7 days; weight, food intake and water intake were registered.

[5] = male Balb/c mice, 10 mg/kg oral, vs vehicle
[6] = ICR male mice, 10 and 20 mg/kg p.o. daily, 7 days

Q: How did the “rearing behavior, compound alone compared to control animals” value ([1]; 20 mg/kg p.o.) turn out when `COC(=O)C(N)CN1CCN(C2=Nc3ccccc3Nc3sc(C)cc32)CC1` (centres unmarked) [Compound 1, 2-amino-3-[4-(2-methyl-10H-thieno[2,3-b][1,5]benzodiazepin-4-yl)-piperazin-1-yl]-propionic acid, methyl ester hydrochloride salt] was run?
A: The value was “increased”.

Q: What about the “increase in head movements induced by amphetamine (stereotypic behavior)” value ([1]; 20 mg/kg p.o. 1 hr prior to amphetamine 2 mg/kg i.p.) of the same compound?
A: Its value is “did not attenuate”.

Q: And the “hyperactivity induced by amphetamine (number of climbings and rearings)” value ([1]; 20 mg/kg p.o. 1 hr prior to amphetamine 2 mg/kg i.p., over 1 h)?
A: The value was “effective in antagonizing”.

Q: What about the catalepsy [2] of the same compound?
A: The catalepsy was “did not induce catalepsy”.

Q: And the “distance moved (swimming behavior)” value [3, 5]?
A: Its value is “significantly increased”.

Q: And the “strong mobility (climbing behavior)” value [3, 5]?
A: The value was “significantly increased”.

Q: What about the immobility ([3]; male Balb/c mice, 20 mg/kg oral, vs vehicle) of the same compound?
A: Its immobility is “decreased”.

Q: And the distance moved ([3]; male ICR mice, 20 mg/kg oral)?
A: The distance moved was “did not modify”.

Q: And the immobility ([3]; male ICR mice, 20 mg/kg oral)?
A: The immobility was “significantly decreased”.

Q: And the “strong mobility (climbing)” value ([3]; male ICR mice, 20 mg/kg oral)?
A: Its value is “significantly decreased”.

Q: What about the velocity ([3]; male ICR mice, 20 mg/kg oral) of the same compound?
A: The velocity was “did not modify”.

Q: What about the animal general behavior [4, 6] of the same compound?
A: The animal general behavior was “no apparent difference”.

Q: What about the “body weight compared to control animals” value [4, 6] of the same compound?
A: Its value is “no difference”.

Q: And the “food intake compared to control animals” value [4, 6]?
A: The value was “no difference”.

Q: What about the tolerability [4, 6] of the same compound?
A: Its tolerability is “well tolerated”.

Q: And the “water intake compared to control animals” value [4, 6]?
A: Its value is “no difference”.

Q: What about the toxic effect ([4]; up to 20 mg/kg given for 7 days) of the same compound?
A: The toxic effect was “did not cause toxic effect”.
